Results from patent publication US20230159538A1, “PYRROLIDINE-PYRAZOLES AS PYRUVATE KINASE ACTIVATORS” (Global Blood Therapeutics, Inc., priority 2020, published 2023).

Tests used:
[1] = molecular target: T1, Pyruvate kinase M2 (PKM2) in H1299 cells (Homo sapiens, UniProt P14618); test: Cell based assay for activation of pyruvate kinase M2 in lung carcinoma cell line (NADH/LDH coupled assay on cell lysate); settings: PKM2 cellular assay; for AC50: H1299 cells, 90 minutes with compound; for PKM2 % activation: maximal activation level relative to the activation level achieved by AG-348 @ 10 μM
T1 construct: endogenous in cells; host or cells: H1299
Method: Cell Based Assay for Activation of Pyruvate Kinase M2 in Lung Carcinoma Cell Line
H1299 cells were seeded in 96-well plates at 2,000 cells/well (100 uL). Treated plates were incubated overnight at 37° C. with 5% CO2. Compounds were diluted in complete media and added to cells in the presence of 1% DMSO. Cells were incubated with compound for 90 minutes at 37° C. and 5% CO2 before washing three times with PBS to remove residual compound and then lysed in lysis buffer (Cell Signaling). […] PKM2 activity was measured at steady state using a coupled enzyme activation system based on NADH consumption. PKM2 produces pyruvate and the coupled system uses lactate dehydrogenase (LDH) to reduce pyruvate to lactate with the concomitant oxidation of NADH to NAD^+. Conversion of NADH to NAD^+ was monitored using a SPECTROstar Nano plate reader (BMG Labtech) at a wavelength of 340 nm and subtraction of background absorbance measured at 750 nm. The change in NADH absorbance after PEP addition was monitored and slope obtained by subtracting baseline at 750 nm followed by least squares fitting to a simple linear regression model. A 10-point curve was generated to calculate the AC50 values by fitting the rates of NADH consumption against increasing concentration of compound.

[2] = molecular target: T2, Human pyruvate kinase R (PKR) (Homo sapiens, UniProt P30613); test: Biochemical assay for activation of pyruvate kinase R (Kinase-Glo luminescence, ATP generation); settings: for AC50: 0.1 nM PKR, 2 mM FBP, 0.3 mM ADP, 0.1 mM PEP; for PKR % activation: maximal activation level relative to the activation level achieved by AG-348 @ 10 μM
T2 construct: Human pyruvate kinase R (PKR), residues 14-574; 6x-His (N, cleaved yes); 8x-Arg (N, cleaved yes); SUMO (N, cleaved yes); host or cells: E. coli
How it was run: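 E. coli-expressed human PKR, freed of its His-Arg-SUMO tag and purified by anion exchange and size exclusion, was tested for activation. Read-out was luminescent measurement of ATP generation with Kinase-Glo reagent.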

PKR = PKR (Mus musculus, UniProt P53657); settings: mouse model of beta-thalassemia; cited from earlier work
PKR, sequence (P53657 whole entry): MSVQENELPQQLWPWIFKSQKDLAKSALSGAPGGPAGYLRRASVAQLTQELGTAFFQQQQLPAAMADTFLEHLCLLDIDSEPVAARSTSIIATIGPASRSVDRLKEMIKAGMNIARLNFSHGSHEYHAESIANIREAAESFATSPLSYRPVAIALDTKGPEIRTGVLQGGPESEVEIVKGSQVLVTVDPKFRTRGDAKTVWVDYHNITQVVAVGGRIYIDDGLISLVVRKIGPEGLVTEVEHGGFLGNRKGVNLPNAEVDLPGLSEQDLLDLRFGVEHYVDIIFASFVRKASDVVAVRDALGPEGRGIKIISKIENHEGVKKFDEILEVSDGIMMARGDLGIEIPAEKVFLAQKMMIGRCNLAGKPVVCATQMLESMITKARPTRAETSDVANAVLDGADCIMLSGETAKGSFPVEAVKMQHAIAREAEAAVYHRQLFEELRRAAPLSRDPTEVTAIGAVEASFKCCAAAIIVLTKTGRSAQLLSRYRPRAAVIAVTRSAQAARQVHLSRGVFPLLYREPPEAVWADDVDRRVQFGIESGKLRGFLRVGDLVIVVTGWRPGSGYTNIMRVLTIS

T2 sequence (P30613 14-574): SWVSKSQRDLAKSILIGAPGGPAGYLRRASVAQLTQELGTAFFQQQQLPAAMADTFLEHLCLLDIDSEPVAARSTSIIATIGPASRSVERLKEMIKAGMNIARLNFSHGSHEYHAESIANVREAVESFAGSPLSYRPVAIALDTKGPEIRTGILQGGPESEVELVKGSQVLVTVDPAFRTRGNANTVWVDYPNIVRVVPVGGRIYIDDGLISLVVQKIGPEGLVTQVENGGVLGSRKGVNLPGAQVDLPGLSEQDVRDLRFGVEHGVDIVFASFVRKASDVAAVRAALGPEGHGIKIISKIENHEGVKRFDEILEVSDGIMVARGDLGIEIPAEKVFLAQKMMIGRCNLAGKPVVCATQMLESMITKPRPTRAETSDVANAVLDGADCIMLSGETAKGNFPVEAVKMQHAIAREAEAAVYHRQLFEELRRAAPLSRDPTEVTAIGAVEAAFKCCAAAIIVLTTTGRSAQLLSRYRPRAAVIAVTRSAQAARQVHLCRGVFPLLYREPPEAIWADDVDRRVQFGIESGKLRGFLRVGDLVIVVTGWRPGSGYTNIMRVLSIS
T1 sequence (P14618 2-531 limits assumed): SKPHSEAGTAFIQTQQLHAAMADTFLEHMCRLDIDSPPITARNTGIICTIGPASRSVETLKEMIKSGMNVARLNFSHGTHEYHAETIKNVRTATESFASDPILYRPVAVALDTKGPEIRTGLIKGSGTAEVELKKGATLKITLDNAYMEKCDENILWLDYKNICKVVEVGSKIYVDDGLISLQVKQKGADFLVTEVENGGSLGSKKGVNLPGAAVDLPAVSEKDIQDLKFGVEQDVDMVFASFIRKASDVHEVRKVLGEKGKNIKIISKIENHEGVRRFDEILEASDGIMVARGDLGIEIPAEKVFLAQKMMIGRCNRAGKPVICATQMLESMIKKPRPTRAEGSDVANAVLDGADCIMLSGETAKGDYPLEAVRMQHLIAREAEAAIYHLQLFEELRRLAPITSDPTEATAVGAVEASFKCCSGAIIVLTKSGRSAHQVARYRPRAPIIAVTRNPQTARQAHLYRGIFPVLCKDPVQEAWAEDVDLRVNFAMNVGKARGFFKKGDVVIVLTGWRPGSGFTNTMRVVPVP

SMILES | AC50 [1] | PKM2 % activation [1] | AC50 [2] | PKR % activation [2] | RBC parameters (PKR)
O=C([C@@H](CO)c1ccccc1)N1Cc2cn(S(=O)(=O)c3ccc4ncsc4c3)nc2C1 (single isomer, unassigned) [Compound 1, (2R)-1-[2-(1,3-benzothiazole-6-sulfonyl)-2H,4H,5H,6H-pyrrolo[3,4-c]pyrazol-5-yl]-3-hydroxy-2-phenylpropan-1-one or (2S)-1-[2-(1,3-benzothiazole-6-sulfonyl)-2H,4H,5H,6H-pyrrolo[3,4-c]pyrazol-5-yl]-3-hydroxy-2-phenylpropan-1-one] | 33 nM | 133% | 28 nM | 82% | –
C[C@@H](O)[C@H](C(=O)N1Cc2cn(S(=O)(=O)c3ccc4ncsc4c3)nc2C1)c1ccccc1 (single isomer, unassigned) [Compound 3] | 45 nM | 101% | 44 nM | 104% | –
CC(O)C(C(=O)N1Cc2cn(S(=O)(=O)c3ccc4ncsc4c3)nc2C1)c1ccccc1 (single isomer, unassigned) [Compound 5] | 38 nM | – | 82 nM | – | –
O=C([C@@H](CO)c1ccccc1)N1Cc2cn(S(=O)(=O)c3ccc(OC(F)F)cc3)nc2C1 (single isomer, unassigned) [Compound 7, (2R)-1-{2-[4-(difluoromethoxy)benzenesulfonyl]-2H,4H,5H,6H-pyrrolo[3,4-c]pyrazol-5-yl}-3-hydroxy-2-phenylpropan-1-one, or (2S)-1-{2-[4-(difluoromethoxy)benzenesulfonyl]-2H,4H,5H,6H-pyrrolo[3,4-c]pyrazol-5-yl}-3-hydroxy-2-phenylpropan-1-one] | 22 nM | 116% | 76 nM | 137% | –
O=C(N1Cc2cn(S(=O)(=O)c3ccc4ncsc4c3)nc2C1)[C@]1(c2ccccn2)CCOC1 (single isomer, unassigned) [Compound 20, 6-({5-[(3S)-3-(pyridin-2-yl)oxolane-3-carbonyl]-2H,4H,5H,6H-pyrrolo[3,4-c]pyrazol-2-yl}sulfonyl)-1,3-benzothiazole or 6-({5-[(3R)-3-(pyridin-2-yl)oxolane-3-carbonyl]-2H,4H,5H,6H-pyrrolo[3,4-c]pyrazol-2-yl}sulfonyl)-1,3-benzothiazole] | 14 nM | 60% | 44 nM | 113% | –
O=C([C@@H](CO)c1ccccc1)N1Cc2cn(S(=O)(=O)c3ccc4c(c3)NCCO4)nc2C1 (single isomer, unassigned) [Compound 22, (2R)-1-[2-(3,4-dihydro-2H-1,4-benzoxazine-6-sulfonyl)-2H,4H,5H,6H-pyrrolo[3,4-c]pyrazol-5-yl]-3-hydroxy-2-phenylpropan-1-one or (2S)-1-[2-(3,4-dihydro-2H-1,4-benzoxazine-6-sulfonyl)-2H,4H,5H,6H-pyrrolo[3,4-c]pyrazol-5-yl]-3-hydroxy-2-phenylpropan-1-one] | 33 nM | 79% | 50 nM | 99% | –
O=C([C@@H](CO)c1ccccc1)N1Cc2cn(S(=O)(=O)c3ccc4c(c3)OCCO4)nc2C1 (single isomer, unassigned) [Compound 25, (2R)-1-[2-(2,3-dihydro-1,4-benzodioxine-6-sulfonyl)-2H,4H,5H,6H-pyrrolo[3,4-c]pyrazol-5-yl]-3-hydroxy-2-phenylpropan-1-one or (2S)-1-[2-(2,3-dihydro-1,4-benzodioxine-6-sulfonyl)-2H,4H,5H,6H-pyrrolo[3,4-c]pyrazol-5-yl]-3-hydroxy-2-phenylpropan-1-one] | 31 nM | 42% | 19 nM | 44% | –
Cc1cccc([C@@]2(C(=O)N3Cc4cn(S(=O)(=O)c5ccc6ncsc6c5)nc4C3)CCOC2)n1 (single isomer, unassigned) [Compound 35, 6-({5-[(3S)-3-(6-methylpyridin-2-yl)oxolane-3-carbonyl]-2H,4H,5H,6H-pyrrolo[3,4-c]pyrazol-2-yl}sulfonyl)-1,3-benzothiazole or 6-({5-[(3R)-3-(6-methylpyridin-2-yl)oxolane-3-carbonyl]-2H,4H,5H,6H-pyrrolo[3,4-c]pyrazol-2-yl}sulfonyl)-1,3-benzothiazole] | 93 nM | 89% | 62 nM | 115% | –
O=C(c1ccc(NS(=O)(=O)c2cccc3cccnc23)cc1)N1CCN(CC2CC2)CC1 [AG-348, Mitapivat] | – | – | – | – | improved
O=S(=O)(c1ccc2c(c1)NCCO2)N1Cc2cn(S(=O)(=O)c3ccc4ncsc4c3)nc2C1 [Compound 12, 6-{[2-(1,3-benzothiazole-6-sulfonyl)-2H,4H,5H,6H-pyrrolo[3,4-c]pyrazol-5-yl]sulfonyl}-3,4-dihydro-2H-1,4-benzoxazine] | 23 nM | – | 41 nM | – | –
N[C@H](C(=O)N1Cc2cn(S(=O)(=O)c3ccc4ncsc4c3)nc2C1)c1ccccc1 [Compound 14, (2S)-2-amino-1[2-(1,3-benzothiazole-6-sulfonyl)-2H,4H,5H,6H-pyrrolo[3,4-c]pyrazol-5-yl]-2-phenylethan-1-one] | 53 nM | – | 110 nM | – | –
N[C@@H](C(=O)N1Cc2cn(S(=O)(=O)c3ccc4ncsc4c3)nc2C1)c1ccccc1 [Compound 15, (2R)-2-amino-1-[2-(1,3-benzothiazole-6-sulfonyl)-2H,4H,5H,6H-pyrrolo[3,4-c]pyrazol-5-yl]-2-phenylethan-1-one] | 26 nM | – | 45 nM | – | –
N[C@@H](C(=O)N1Cc2cn(S(=O)(=O)c3ccc4ncsc4c3)nc2C1)c1ccccc1F [Compound 17, (2R)-2-amino-1-[2-(1,3-benzothiazole-6-sulfonyl)-2H,4H,5H,6H-pyrrolo[3,4-c]pyrazol-5-yl]-2-(2-fluorophenyl)ethan-1-one] | 23 nM | – | 24 nM | – | –
C[C@@H](O)[C@H](C(=O)N1Cc2cn(S(=O)(=O)c3ccc4c(c3)NCCO4)nc2C1)c1ccccc1 [Compound 23] | 61 nM | 116% | 56 nM | 95% | –
C[C@@H](O)[C@H](C(=O)N1Cc2cn(S(=O)(=O)c3ccc4c(c3)NCCO4)nc2C1)c1ccccc1 [Compound 24] | 59 nM | 63% | 78 nM | 65% | –
N[C@@H](C(=O)N1Cc2cn(S(=O)(=O)c3ccc(OC(F)F)cc3)nc2C1)c1cccc(F)c1 [Compound 29, (2R)-2-amino-1-{2-[4-(difluoromethoxy)benzenesulfonyl]-2H,4H,5H,6H-pyrrolo[3,4-c]pyrazol-5-yl}-2-(3-fluorophenyl)ethan-1-one] | 25 nM | – | 92 nM | – | –
N[C@@H](C(=O)N1Cc2cn(S(=O)(=O)c3ccc4ncsc4c3)nc2C1)c1cccc(F)c1 [Compound 32, (2R)-2-amino-1-[2-(1,3-benzothiazole-6-sulfonyl)-2H,4H,5H,6H-pyrrolo[3,4-c]pyrazol-5-yl]-2-(3-fluorophenyl)ethan-1-one] | 91 nM | – | 38 nM | – | –
Cc1cccc([C@@H](N)C(=O)N2Cc3cn(S(=O)(=O)c4ccc5ncsc5c4)nc3C2)c1 [Compound 37, (2R)-2-amino-1-[2-(1,3-benzothiazole-6-sulfonyl)-2H,4H,5H,6H-pyrrolo[3,4-c]pyrazol-5-yl]-2-(3-methylphenyl)ethan-1-one] | 17 nM | – | 21 nM | – | –
O=C(N1Cc2cn(S(=O)(=O)c3ccc4ncsc4c3)nc2C1)C1(c2ccccc2)COC1 [Compound 40, 6-{[5-(3-phenyloxetane-3-carbonyl)-2H,4H,5H,6H-pyrrolo[3,4-c]pyrazol-2-yl]sulfonyl}-1,3-benzothiazole] | 31 nM | – | 60 nM | – | –
O=C([C@H](O)c1ccccc1)N1Cc2cn(S(=O)(=O)c3ccc4ncsc4c3)nc2C1 [Compound 42, (2R)-1-[2-(1,3-benzothiazole-6-sulfonyl)-2H,4H,5H,6H-pyrrolo[3,4-c]pyrazol-5-yl]-2-hydroxy-2-phenylethan-1-one] | 16 nM | – | 17 nM | – | –
